Measurements taken from patent US6992169B2, “Carrier based drug delivery system” (Cyclacel Limited, priority 1998, dated 2006).

Experiments:
[1] = test system: HaCaT cells; test: In vitro cytotoxic activity, inhibition of cell proliferation, ATP bioluminescence (ViaLight); type: cell-based, human
Protocol: (§1) This compound (abbreviated ‘MTX-Pen’ in the tables below) was evaluated for its ability to inhibit cell proliferation of normal (immortalised) human cells (HaCaT cells, Tables 1 & 2) and a human colorectal cancer cell line (HT29, Table 3).
(§2) Assay procedure—Cells were seeded into 96-well plates at 2,500 cells/well in DMEM with 10% FCS and antibiotics. After overnight incubation, test compound dilutions in cell medium were prepared and were added to the cells. Samples were taken 1, 2, 3, and 4 days after compound addition. Nucleotide Releasing Reagent (LumiTech ViaLight kit) was added in order to lyse the cells and release ATP. After incubation at room temperature (5 min), the mixtures were transferred to opaque 96-well plates and stored at −20° C. until analysis. After loading plates into a luminometer (Lucy 1, Labtech International), ATP Monitoring Reagent (20 μL/well, LumiTech ViaLight kit) was added to each well successively and light intensity was measured immediately. Six readings were taken per sample. Each assay point was established using six replicates and appropriate controls. […] Statistically significant results in the tables below are printed in bold face.
(§3) This compound (abbreviated ‘MTX-Pen’ in tables below) was evaluated for its ability to inhibit cell proliferation of normal (immortalised) human cells (HaCaT cells, Tables 1 & 2) and a human colorectal cancer cell line (HT29, Table 3).
(§4) Assay procedure—Cells were seeded into 96-well plates at 2,500 cells/well in DMEM with 10% foetal calf serum and antibiotics. After overnight incubation, test compound dilutions in cell medium were prepared and were added to the cells. Samples were taken 1, 2, 3, and 4 days after compound addition. Nucleotide Releasing Reagent (LumiTech ViaLight kit) was added in order to lyse the cells and release ATP. After incubation at room temperature (5 min), the mixtures were transferred to opaque 96-well plates and stored at −20° C. until analysis. After loading plates into a luminometer (Lucy 1, Labtech International), ATP Monitoring Reagent ([…], LumiTech ViaLight kit) was added to each well successively and light intensity was measured immediately. Six readings were taken per sample. Each assay point was established using six replicates and appropriate controls.

[2] = test system: HT29; test: as above; type: cell-based, human
Protocol: as §1, §2, §3, §4

[3] = Table 1, HaCaT, Dose 0.2 μM, Day 1
[4] = Table 1, HaCaT, Dose 0.2 μM, Day 2
[5] = Table 1, HaCaT, Dose 0.2 μM, Day 3
[6] = Table 1, HaCaT, Dose 0.2 μM, Day 4
[7] = Table 1, HaCaT, Dose 0.5 μM, Day 1
[8] = Table 1, HaCaT, Dose 0.5 μM, Day 2
[9] = Table 1, HaCaT, Dose 0.5 μM, Day 3
[10] = Table 1, HaCaT, Dose 0.5 μM, Day 4
[11] = Table 1, HaCaT, Dose 1.5 μM, Day 1
[12] = Table 1, HaCaT, Dose 1.5 μM, Day 2
[13] = Table 1, HaCaT, Dose 1.5 μM, Day 3
[14] = Table 1, HaCaT, Dose 1.5 μM, Day 4
[15] = Table 1, HaCaT, Dose 4.4 μM, Day 1
[16] = Table 1, HaCaT, Dose 4.4 μM, Day 2
[17] = Table 1, HaCaT, Dose 4.4 μM, Day 3
[18] = Table 1, HaCaT, Dose 4.4 μM, Day 4
[19] = Table 1, HaCaT, Dose 13.3 μM, Day 1
[20] = Table 1, HaCaT, Dose 13.3 μM, Day 2
[21] = Table 1, HaCaT, Dose 13.3 μM, Day 3
[22] = Table 1, HaCaT, Dose 13.3 μM, Day 4
[23] = Table 1, HaCaT, Dose 40.0 μM, Day 1
[24] = Table 1, HaCaT, Dose 40.0 μM, Day 2
[25] = Table 1, HaCaT, Dose 40.0 μM, Day 3
[26] = Table 1, HaCaT, Dose 40.0 μM, Day 4
[27] = Table 2, HaCaT, Dose 0.5 μM, Day 1
[28] = Table 2, HaCaT, Dose 0.5 μM, Day 2
[29] = Table 2, HaCaT, Dose 0.5 μM, Day 3
[30] = Table 2, HaCaT, Dose 0.5 μM, Day 4
[31] = Table 2, HaCaT, Dose 1.5 μM, Day 1
[32] = Table 2, HaCaT, Dose 1.5 μM, Day 2
[33] = Table 2, HaCaT, Dose 1.5 μM, Day 3
[34] = Table 2, HaCaT, Dose 1.5 μM, Day 4
[35] = Table 2, HaCaT, Dose 4.4 μM, Day 1
[36] = Table 2, HaCaT, Dose 4.4 μM, Day 2
[37] = Table 2, HaCaT, Dose 4.4 μM, Day 3
[38] = Table 2, HaCaT, Dose 4.4 μM, Day 4
[39] = Table 3, HT 29, Dose 0.5 μM, Day 1
[40] = Table 3, HT 29, Dose 0.5 μM, Day 2
[41] = Table 3, HT 29, Dose 0.5 μM, Day 3
[42] = Table 3, HT 29, Dose 0.5 μM, Day 4
[43] = Table 3, HT 29, Dose 1.5 μM, Day 1
[44] = Table 3, HT 29, Dose 1.5 μM, Day 2
[45] = Table 3, HT 29, Dose 1.5 μM, Day 3
[46] = Table 3, HT 29, Dose 1.5 μM, Day 4
[47] = Table 3, HT 29, Dose 4.4 μM, Day 1
[48] = Table 3, HT 29, Dose 4.4 μM, Day 2
[49] = Table 3, HT 29, Dose 4.4 μM, Day 3
[50] = Table 3, HT 29, Dose 4.4 μM, Day 4

Compound: CN(Cc1cnc2nc(N)nc(N)c2n1)c1ccc(C(=O)N[C@@H](CCC(=O)O)C(=O)O)cc1 [MTX, methotrexate]
- % Cell Death [1, 3]: 7%
- % Cell Death [1, 4]: 11%
- % Cell Death [1, 5]: 79%
- % Cell Death [1, 6]: 93%
- % Cell Death [1, 7]: −4%
- % Cell Death [1, 8]: 31%
- % Cell Death [1, 9]: 75%
- % Cell Death [1, 10]: 93%
- % Cell Death [1, 11]: 13%
- % Cell Death [1, 12]: 31%
- % Cell Death [1, 13]: 77%
- % Cell Death [1, 14]: 94%
- % Cell Death [1, 15]: 4%
- % Cell Death [1, 16]: 24%
- % Cell Death [1, 17]: 77%
- % Cell Death [1, 18]: 93%
- % Cell Death [1, 19]: 22%
- % Cell Death [1, 20]: 35%
- % Cell Death [1, 21]: 82%
- % Cell Death [1, 22]: 92%
- % Cell Death [1, 23]: 4%
- % Cell Death [1, 24]: 15%
- % Cell Death [1, 25]: 79%
- % Cell Death [1, 26]: 92%
- % Cell Death ([1]; Table 2, HaCaT, Dose 0.1 μM, Day 1): 19%
- % Cell Death ([1]; Table 2, HaCaT, Dose 0.1 μM, Day 2): 7%
- % Cell Death ([1]; Table 2, HaCaT, Dose 0.1 μM, Day 3): 45%
- % Cell Death ([1]; Table 2, HaCaT, Dose 0.1 μM, Day 4): 65%
- % Cell Death ([1]; Table 2, HaCaT, Dose 0.2 μM, Day 1): 3%
- % Cell Death ([1]; Table 2, HaCaT, Dose 0.2 μM, Day 2): 41%
- % Cell Death ([1]; Table 2, HaCaT, Dose 0.2 μM, Day 3): 94%
- % Cell Death ([1]; Table 2, HaCaT, Dose 0.2 μM, Day 4): 86%
- % Cell Death [1, 27]: 0%
- % Cell Death [1, 28]: 59%
- % Cell Death [1, 29]: 96%
- % Cell Death [1, 30]: 91%
- % Cell Death [1, 31]: 14%
- % Cell Death [1, 32]: 67%
- % Cell Death [1, 33]: 96%
- % Cell Death [1, 34]: 91%
- % Cell Death [1, 35]: 21%
- % Cell Death [1, 36]: 70%
- % Cell Death [1, 37]: 97%
- % Cell Death [1, 38]: 92%
- % Cell Death ([2]; Table 3, HT 29, Dose 0.1 μM, Day 1): 6%
- % Cell Death ([2]; Table 3, HT 29, Dose 0.1 μM, Day 2): −17%
- % Cell Death ([2]; Table 3, HT 29, Dose 0.1 μM, Day 3): 52%
- % Cell Death ([2]; Table 3, HT 29, Dose 0.1 μM, Day 4): 84%
- % Cell Death ([2]; Table 3, HT 29, Dose 0.2 μM, Day 1): 10%
- % Cell Death ([2]; Table 3, HT 29, Dose 0.2 μM, Day 2): −5%
- % Cell Death ([2]; Table 3, HT 29, Dose 0.2 μM, Day 3): 54%
- % Cell Death ([2]; Table 3, HT 29, Dose 0.2 μM, Day 4): 85%
- % Cell Death [2, 39]: 15%
- % Cell Death [2, 40]: −12%
- % Cell Death [2, 41]: 52%
- % Cell Death [2, 42]: 88%
- % Cell Death [2, 43]: 17%
- % Cell Death [2, 44]: −5%
- % Cell Death [2, 45]: 48%
- % Cell Death [2, 46]: 84%
- % Cell Death [2, 47]: −14%
- % Cell Death [2, 48]: −4%
- % Cell Death [2, 49]: 58%
- % Cell Death [2, 50]: 86%

Compound: {[4[N-(2,4-Diamino-6-pteridinyl-methyl)-N-methylamino]benzoyl]-Glu-Gly-βAla}4-Lys2-Lys-βAla-Arg-Gln-Ile-Lys-Ile-Trp-Phe-Gln-Asn-Arg-Arg-Met-Lys-Trp-Lys-Lys-OH [MTX-Pen]
- % Cell Death [1, 3]: 14%
- % Cell Death [1, 4]: 21%
- % Cell Death [1, 5]: 20%
- % Cell Death [1, 6]: 51%
- % Cell Death [1, 7]: −19%
- % Cell Death [1, 8]: 2%
- % Cell Death [1, 9]: 29%
- % Cell Death [1, 10]: 49%
- % Cell Death [1, 11]: −24%
- % Cell Death [1, 12]: 82%
- % Cell Death [1, 13]: 82%
- % Cell Death [1, 14]: 88%
- % Cell Death [1, 15]: −8%
- % Cell Death [1, 16]: 45%
- % Cell Death [1, 17]: 95%
- % Cell Death [1, 18]: 98%
- % Cell Death [1, 19]: −42%
- % Cell Death [1, 20]: 63%
- % Cell Death [1, 21]: 97%
- % Cell Death [1, 22]: 98%
- % Cell Death [1, 23]: 29%
- % Cell Death [1, 24]: 82%
- % Cell Death [1, 25]: 97%
- % Cell Death [1, 26]: 98%
- % Cell Death [1, 27]: 13%
- % Cell Death [1, 28]: 24%
- % Cell Death [1, 29]: −27%
- % Cell Death [1, 30]: 2%
- % Cell Death [1, 31]: 19%
- % Cell Death [1, 32]: 12%
- % Cell Death [1, 33]: −16%
- % Cell Death [1, 34]: 17%
- % Cell Death [1, 35]: 15%
- % Cell Death [1, 36]: 52%
- % Cell Death [1, 37]: 95%
- % Cell Death [1, 38]: 88%
- % Cell Death ([1]; Table 2, HaCaT, Dose 13.3 μM, Day 1): 27%
- % Cell Death ([1]; Table 2, HaCaT, Dose 13.3 μM, Day 2): 87%
- % Cell Death ([1]; Table 2, HaCaT, Dose 13.3 μM, Day 3): 95%
- % Cell Death ([1]; Table 2, HaCaT, Dose 13.3 μM, Day 4): 94%
- % Cell Death ([1]; Table 2, HaCaT, Dose 40.0 μM, Day 1): 42%
- % Cell Death ([1]; Table 2, HaCaT, Dose 40.0 μM, Day 2): 88%
- % Cell Death ([1]; Table 2, HaCaT, Dose 40.0 μM, Day 3): 95%
- % Cell Death ([1]; Table 2, HaCaT, Dose 40.0 μM, Day 4): 94%
- % Cell Death [2, 39]: 14%
- % Cell Death [2, 40]: 8%
- % Cell Death [2, 41]: 17%
- % Cell Death [2, 42]: 16%
- % Cell Death [2, 43]: 16%
- % Cell Death [2, 44]: 9%
- % Cell Death [2, 45]: 15%
- % Cell Death [2, 46]: 45%
- % Cell Death [2, 47]: 10%
- % Cell Death [2, 48]: 6%
- % Cell Death [2, 49]: 46%
- % Cell Death [2, 50]: 77%
- % Cell Death ([2]; Table 3, HT 29, Dose 13.3 μM, Day 1): 3%
- % Cell Death ([2]; Table 3, HT 29, Dose 13.3 μM, Day 2): 45%
- % Cell Death ([2]; Table 3, HT 29, Dose 13.3 μM, Day 3): 88%
- % Cell Death ([2]; Table 3, HT 29, Dose 13.3 μM, Day 4): 96%
- % Cell Death ([2]; Table 3, HT 29, Dose 40.0 μM, Day 1): 31%
- % Cell Death ([2]; Table 3, HT 29, Dose 40.0 μM, Day 2): 79%
- % Cell Death ([2]; Table 3, HT 29, Dose 40.0 μM, Day 3): 96%
- % Cell Death ([2]; Table 3, HT 29, Dose 40.0 μM, Day 4): 98%

Compound: H-Ala-Arg-Gln-Ile-Lys-Ile-Trp-Phe-Gln-Asn-Arg-Arg-Met-Lys-Trp-Lys-Lys-OH (H-ARQIKIWFQNRRMKWKK-OH) [Pen, the free vector]
- % Cell Death [1, 3]: 26%
- % Cell Death [1, 4]: 0%
- % Cell Death [1, 5]: −3%
- % Cell Death [1, 6]: 21%
- % Cell Death [1, 7]: 6%
- % Cell Death [1, 8]: −6%
- % Cell Death [1, 9]: −29%
- % Cell Death [1, 10]: −26%
- % Cell Death [1, 11]: 16%
- % Cell Death [1, 12]: −31%
- % Cell Death [1, 13]: 2%
- % Cell Death [1, 14]: −14%
- % Cell Death [1, 15]: 8%
- % Cell Death [1, 16]: −4%
- % Cell Death [1, 17]: −1%
- % Cell Death [1, 18]: 10%
- % Cell Death [1, 19]: 18%
- % Cell Death [1, 20]: 0%
- % Cell Death [1, 21]: −17%
- % Cell Death [1, 22]: −6%
- % Cell Death [1, 23]: 16%
- % Cell Death [1, 24]: −22%
- % Cell Death [1, 25]: 5%
- % Cell Death [1, 26]: 12%
